Columns and labels:
Format in all cases: functional
HCT-15 = experiment: Growth inhibition of human HCT15 cells after 48 hrs by sulforhodamine B assay; details: HCT-15, 48 h
ACHN = experiment: Growth inhibition of human ACHN cells after 48 hrs by sulforhodamine B assay
KM12 = experiment: Growth inhibition of human KM12 cells after 48 hrs by sulforhodamine B assay; details: KM12, 48 h
HT-29 = experiment: Growth inhibition of human HT-29 cells after 48 hrs by sulforhodamine B assay; details: HT-29, 48 h
SK-MEL-5 = experiment: Growth inhibition of human SK-MEL-5 cells after 48 hrs by sulforhodamine B assay; details: SK-MEL-5, 48 h
SW-620 = experiment: Growth inhibition of human SW620 cells after 48 hrs by sulforhodamine B assay; details: SW-620, 48 h
IGROV-1 = experiment: Growth inhibition of human IGROV1 cells after 48 hrs by sulforhodamine B assay; details: IGROV-1, 48 h
UACC-62 = experiment: Growth inhibition of human UACC62 cells after 48 hrs by sulforhodamine B assay; details: UACC-62, 48 h
U-251 = experiment: Growth inhibition of human U251 cells after 48 hrs by sulforhodamine B assay; details: U-251, 48 h
MDA-MB-468 = experiment: Growth inhibition of human MDA-MB-468 cells after 48 hrs by sulforhodamine B assay; details: MDA-MB-468, 48 h
SN12C = experiment: Growth inhibition of human SN12C cells after 48 hrs by sulforhodamine B assay
T47D = experiment: Growth inhibition of human T47D cells after 48 hrs by sulforhodamine B assay
M14 = experiment: Growth inhibition of human M14 cells after 48 hrs by sulforhodamine B assay; details: M14, 48 h
MOLT-4 = experiment: Growth inhibition of human MOLT4 cells after 48 hrs by sulforhodamine B assay; details: MOLT-4, 48 h
MDA-MB-231 = experiment: Growth inhibition of human MDA-MB-231/ATCC cells after 48 hrs by sulforhodamine B assay; details: MDA-MB-231, 48 h
HCC 2998 = experiment: Growth inhibition of human HCC2998 cells after 48 hrs by sulforhodamine B assay; details: HCC 2998, 48 h
LOX IMVI = experiment: Growth inhibition of human LOXIMVI cells after 48 hrs by sulforhodamine B assay
COLO 205 = experiment: Growth inhibition of human COLO205 cells after 48 hrs by sulforhodamine B assay; details: COLO 205, 48 h
NCI-H226 = experiment: Growth inhibition of human NCI-H226 cells after 48 hrs by sulforhodamine B assay; details: NCI-H226, 48 h
SK-MEL-2 = experiment: Growth inhibition of human SK-MEL-2 cells after 48 hrs by sulforhodamine B assay; details: SK-MEL-2, 48 h
NCI/ADR-RES = experiment: Growth inhibition of human NCI/ADR-RES cells after 48 hrs by sulforhodamine B assay
OVCAR-4 = experiment: Growth inhibition of human OVCAR4 cells after 48 hrs by sulforhodamine B assay; details: OVCAR-4, 48 h
OVCAR-3 = experiment: Growth inhibition of human OVCAR3 cells after 48 hrs by sulforhodamine B assay; details: OVCAR-3, 48 h
786-0 = experiment: Growth inhibition of human 786-0 cells after 48 hrs by sulforhodamine B assay; details: 786-0, 48 h
A498 = experiment: Growth inhibition of human A498 cells after 48 hrs by sulforhodamine B assay; details: A498, 48 h
RXF 393 = experiment: Growth inhibition of human RXF393 cells after 48 hrs by sulforhodamine B assay; details: RXF 393, 48 h
CAKI-1 = experiment: Growth inhibition of human Caki1 cells after 48 hrs by sulforhodamine B assay; details: CAKI-1, 48 h
NCI-H322M = experiment: Growth inhibition of human NCI-H322M cells after 48 hrs by sulforhodamine B assay
NCI-H522 = experiment: Growth inhibition of human NCI-H522 cells after 48 hrs by sulforhodamine B assay; details: NCI-H522, 48 h
TK-10 = experiment: Growth inhibition of human TK10 cells after 48 hrs by sulforhodamine B assay; details: TK-10, 48 h
HOP-62 = experiment: Growth inhibition of human HOP62 cells after 48 hrs by sulforhodamine B assay; details: HOP-62, 48 h
BT-549 = experiment: Growth inhibition of human BT549 cells after 48 hrs by sulforhodamine B assay; details: BT-549, 48 h
[1] = read-out: pLC50 (the source's name) (converted)

With `COc1cc(/C=C/c2cc3c(c(SC)c2)O[C@]2(C)CC[C@@H](O)C(C)(C)[C@H]2C3)cc(O)c1C/C=C(\C)CCC=C(C)C` the GI50 (HCT-15) was 2.95 µM, the LC50 (HCT-15) was 72.4 µM and the TGI (HCT-15; read-out: pTGI (converted)) was 8.91 µM. For the same molecule, the GI50 (ACHN) was 10.7 µM, the LC50 (ACHN) was > 100 µM and the TGI (ACHN; read-out: pTGI (converted)) was > 100 µM. The GI50 (KM12) was 4.27 µM, the LC50 (KM12) was 83.2 µM and the TGI (KM12; read-out: pTGI (converted)) was 20.4 µM. The GI50 (HT-29) was 2.09 µM, the LC50 (concentration killing 50% of cells) (HT-29) was > 100 µM and the TGI (HT-29; read-out: pTGI (converted)) was 16.2 µM. The GI50 (SK-MEL-5) was 9.77 µM, the LC50 (SK-MEL-5) was 55 µM and the TGI (SK-MEL-5; read-out: pTGI (converted)) was 23.4 µM. For the same molecule, the GI50 (SW-620) was 6.76 µM, the LC50 (SW-620) was 50.1 µM and the TGI (SW-620; read-out: pTGI (converted)) was 20.9 µM. For the same molecule, the GI50 (IGROV-1) was 39.8 µM, the LC50 (IGROV-1) was > 100 µM and the TGI (IGROV-1; read-out: pTGI (converted)) was > 100 µM. The GI50 (UACC-62) was 7.08 µM, the LC50 (50% lethal concentration) (UACC-62) was > 100 µM and the TGI (UACC-62; read-out: pTGI (converted)) was 28.8 µM. It also gave a GI50 (U-251) of 5.01 µM, an LC50 (U-251) of 85.1 µM and a TGI (U-251; read-out: pTGI (converted)) of 24 µM. The GI50 (MDA-MB-468) was 4.57 µM, the LC50 (MDA-MB-468) was 87.1 µM and the TGI (MDA-MB-468; read-out: pTGI (converted)) was 20 µM. The GI50 (SN12C) was 10.5 µM, the LC50 (SN12C) was > 100 µM and the TGI (SN12C; read-out: pTGI (converted)) was 32.4 µM. For the same molecule, the GI50 (T47D) was 14.5 µM, the LC50 (T47D) was > 100 µM and the TGI (T47D; read-out: pTGI (converted)) was 67.6 µM. The GI50 (M14) was 8.13 µM, the LC50 (M14) was 95.5 µM and the TGI (M14; read-out: pTGI (converted)) was 28.8 µM. For the same molecule, the GI50 (MOLT-4) was 4.27 µM, the LC50 (MOLT-4) was > 100 µM and the TGI (MOLT-4; read-out: pTGI (converted)) was 100 µM. It also gave a GI50 (MDA-MB-231) of 3.39 µM, a CC50 (MDA-MB-231; [1]) of 56.2 µM and a TGI (MDA-MB-231; read-out: pTGI (converted)) of 14.5 µM. The GI50 (HCC 2998) was 12 µM, the LC50 (HCC 2998) was > 100 µM and the TGI (HCC 2998; read-out: pTGI (converted)) was 38.9 µM. It also gave a GI50 (LOX IMVI) of 4.37 µM, an LC50 (LOX IMVI) of 47.9 µM and a TGI (LOX IMVI; read-out: pTGI (converted)) of 13.2 µM. The GI50 (COLO 205) was 1.35 µM, the LC50 (COLO 205) was 7.08 µM and the TGI (COLO 205; read-out: pTGI (converted)) was 3.09 µM. The GI50 (NCI-H226) was 15.1 µM, the LC50 (NCI-H226) was > 100 µM and the TGI (NCI-H226; read-out: pTGI (converted)) was 39.8 µM. It also gave a GI50 (SK-MEL-2) of 12.6 µM, an LC50 (SK-MEL-2) of 69.2 µM and a TGI (SK-MEL-2; read-out: pTGI (converted)) of 29.5 µM. The GI50 (NCI/ADR-RES) was 11 µM, the LC50 (NCI/ADR-RES) was > 100 µM and the TGI (NCI/ADR-RES; read-out: pTGI (converted)) was 38 µM. For the same molecule, the GI50 (OVCAR-4) was 23.4 µM, the LC50 (OVCAR-4) was > 100 µM and the TGI (OVCAR-4; read-out: pTGI (converted)) was > 100 µM. For the same molecule, the GI50 (OVCAR-3) was 5.89 µM, the LC50 (OVCAR-3) was 43.7 µM and the TGI (OVCAR-3; read-out: pTGI (converted)) was 18.2 µM. For the same molecule, the GI50 (786-0) was 5.01 µM, the CC50 (786-0; [1]) was 67.6 µM and the TGI (786-0; read-out: pTGI (converted)) was 21.4 µM. It also gave a GI50 (A498) of 4.57 µM, an LC50 (A498) of 67.6 µM and a TGI (A498; read-out: pTGI (converted)) of 22.4 µM. The GI50 (RXF 393) was 1.55 µM, the LC50 (50% lethal concentration) (RXF 393) was 17.8 µM and the TGI (RXF 393; read-out: pTGI (converted)) was 4.47 µM. For the same molecule, the GI50 (CAKI-1) was 27.5 µM, the LC50 (CAKI-1) was > 100 µM and the TGI (CAKI-1; read-out: pTGI (converted)) was > 100 µM. For the same molecule, the GI50 (NCI-H322M) was 51.3 µM, the LC50 (NCI-H322M) was > 100 µM and the TGI (NCI-H322M; read-out: pTGI (converted)) was > 100 µM. It also gave a GI50 (NCI-H522) of 12 µM, an LC50 (NCI-H522) of 93.3 µM and a TGI (NCI-H522; read-out: pTGI (converted)) of 33.1 µM. The GI50 (TK-10) was 20.9 µM, the LC50 (TK-10) was > 100 µM and the TGI (TK-10; read-out: pTGI (converted)) was > 100 µM. For the same molecule, the GI50 (HOP-62) was 12 µM, the LC50 (HOP-62) was 79.4 µM and the TGI (HOP-62; read-out: pTGI (converted)) was 30.9 µM. For the same molecule, the GI50 (BT-549) was 18.6 µM, the LC50 (BT-549) was > 100 µM and the TGI (BT-549; read-out: pTGI (converted)) was > 100 µM.

— ChEMBL document CHEMBL1926642, “Relevance of the C-5 position to schweinfurthin induced cytotoxicity” (2011)
